Reference: patent US10370380B2, “Octahydropyrrolo[3,4-c]pyrrole derivatives and uses thereof” (Sunshine Lake Pharma Co., Ltd., priority 2015, dated 2019)
Read-outs that look alike come from different tables or passages of the source.

How the values were obtained:
humanized OX2 receptor = biological target: T1, humanized OX2 receptor (Homo sapiens, UniProt O43614); assay: Antagonistic effect on humanized OX2 receptor, calcium flux by fluorescence detection in HEK-293 cells; format: cell-based
T1 construct: expressed in transfected cells; host or cells: HEK-293 cells
T1 sequence (O43614 1-444): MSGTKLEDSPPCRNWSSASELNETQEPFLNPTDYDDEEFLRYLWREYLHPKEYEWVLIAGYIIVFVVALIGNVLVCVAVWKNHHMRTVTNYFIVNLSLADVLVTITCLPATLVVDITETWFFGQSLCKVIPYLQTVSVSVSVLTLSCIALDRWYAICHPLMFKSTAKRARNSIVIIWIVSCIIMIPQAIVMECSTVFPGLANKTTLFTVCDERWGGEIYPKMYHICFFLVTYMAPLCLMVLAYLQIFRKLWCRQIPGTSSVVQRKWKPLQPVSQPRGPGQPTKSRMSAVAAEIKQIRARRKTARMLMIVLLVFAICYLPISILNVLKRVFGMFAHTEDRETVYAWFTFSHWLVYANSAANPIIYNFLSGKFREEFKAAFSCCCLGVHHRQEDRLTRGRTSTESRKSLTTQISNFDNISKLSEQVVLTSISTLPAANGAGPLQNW
Description: (§1) The capability of the compounds provided herein to antagonize humanized OX2 receptors expressed in HEK-293 cells was evaluated by the influence of the compounds disclosed herein on calcium flux in cells induced by agonist detected by a method of fluorescence detection. The cells were suspended in DMEM culture medium (invitrogen), and then added to a microplate with an average density of 3×10^4 cells/well. The Hank's balanced salt solution (pH 7.4) containing fluorescent probes (Fluo4 NW, Invitrogen), probenecid (invitrogen), 20 mM […] (invitrogen) was added to the above microplate, and then incubated together with the cells at 37° C. for 60 min, further incubated at 22° C. for 15 min. The microplate was placed in a microplate reader (CellLux, PerkinElmer), and to which was added the test compound or reference antagonist or Hank's balanced salt solution, 5 min later, 10 nM of orexin B or Hank's balanced salt solution (as a blank contrast) was added. […] The experimental results were expressed as an inhibition percentage relative to a control group (the group with 10 nM of orexin B).
The standard reference antagonist is JNJ10397049, and IC50 values were calculated by the dose-effect curve obtained from a series of concentrations of the experimental test.

humanized OX1 receptor = biological target: T2, humanized OX1 receptor (Homo sapiens, UniProt O43613); assay: Antagonistic effect on humanized OX1 receptor, calcium flux by fluorescence detection in CHO cells; format: cell-based; conditions: CHO cells, calcium flux induced by 3 nM orexin A; read-out: OX1 IC50
T2 construct: expressed in transfected cells; host or cells: CHO (Chinese hamster ovary) cells
T2 sequence (O43613 1-425): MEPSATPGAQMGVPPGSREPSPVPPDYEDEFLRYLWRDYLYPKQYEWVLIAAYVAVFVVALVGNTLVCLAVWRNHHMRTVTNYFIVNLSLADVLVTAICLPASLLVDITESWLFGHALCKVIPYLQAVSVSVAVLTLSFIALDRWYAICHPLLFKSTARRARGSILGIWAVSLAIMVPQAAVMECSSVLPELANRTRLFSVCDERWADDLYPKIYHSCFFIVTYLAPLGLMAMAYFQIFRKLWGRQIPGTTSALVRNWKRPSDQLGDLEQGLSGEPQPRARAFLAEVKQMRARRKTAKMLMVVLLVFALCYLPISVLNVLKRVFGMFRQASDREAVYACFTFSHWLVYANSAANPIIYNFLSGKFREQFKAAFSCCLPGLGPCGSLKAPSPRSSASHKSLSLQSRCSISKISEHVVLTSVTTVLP
Description: as §1, with “OX1 receptor” for “OX2 receptors”, “Chinese hamster ovary (CHO)” for “HEK-293”, “2×10^4” for “3×10^4”, “3” for “10”, “A” for “B”, “A).” for “B).”
The standard reference antagonist is SB334867, and IC50 values were calculated by the dose-effect curve obtained from a series of concentrations of the experimental test.

[1] = Pharmacokinetic evaluation after intravenous or gavage administration to rats; format: in vivo, SD rats; conditions: SD, rat, in vivo
Description: (§2) The compounds disclosed herein were administered in form of a saline solution containing 5% DMSO, 5% Kolliphor HS 15, 2% (2% HCl) and 88% Saline, or a solution containing 10% DMSO, 10% Kolliphor HS 15 and 80% physiological saline to the subject animals. For intravenous administration, the animals were administered with a dose of 1 mg/kg or 2 mg/kg, and vein blood samples (0.3 mL) were collected at the time points of 0.083, 0.25, 0.5, 1.0, 2.0, 4.0, 6.0, 8.0 and 24 h after drug administration; plasma samples were collected by centrifugation of the vein blood samples at 3000 rpm or 4000 rpm for 10 minutes, and stored at −20° C. or −70° C. For gavage administration, the animals were administered with a dose of 2.5 mg/kg or 5 mg/kg, and vein blood samples (0.3 mL) were collected at the time points of 0.25, 0.5, 1.0, 2.0, 4.0, 6.0, 8.0 and 24 h after drug administration; plasma samples were collected by centrifugation at 3000 rpm or 4000 rpm for 10 minutes, and stored at −20° C. or −70° C. The positive control is suvorexant.
(§3) The above plasma samples were analyzed by the LC-MS/MS system.

[2] = Pharmacokinetic evaluation after intravenous or gavage administration to dogs; format: in vivo, Beagle dogs; conditions: beagle, dog, in vivo
Description: as §2, §3

[3] = HEK-293 cells, calcium flux induced by 10 nM orexin B, read-out: OX2 IC50

| SMILES | IC50 (humanized OX2 receptor; [3]) [nM] | AUC(0-inf) ([1]; iv, 1 mg/kg) [ng·h/mL] | AUC(0-t) ([1]; iv, 1 mg/kg) [ng·h/mL] | Cmax ([1]; iv, 1 mg/kg) [ng/mL] | MRT inf ([1]; iv, 1 mg/kg) [min] | Vd ([1]; iv, 1 mg/kg) [L/kg] | clearance ([1]; iv, 1 mg/kg) [mL/min/kg] | half-life ([1]; iv, 1 mg/kg) [min] | AUC(0-inf) ([1]; po, 2.5 mg/kg) [ng·h/mL] | AUC(0-t) ([1]; po, 2.5 mg/kg) [ng·h/mL] | Cmax ([1]; po, 2.5 mg/kg) [ng/mL] | F ([1]; po, 2.5 mg/kg) [%] | MRT inf ([1]; po, 2.5 mg/kg) [min] | half-life ([1]; po, 2.5 mg/kg) [min] | IC50 (humanized OX1 receptor) [nM] | other results |
| --- | --- | --- | --- | --- | --- | --- | --- | --- | --- | --- | --- | --- | --- | --- | --- | --- |
| O=C(c1ccccc1-n1nccn1)N1CC2CN(c3nc4cc(F)ccc4o3)CC2C1 (centres unmarked) [Example 5, (2-(2H-1,2,3-triazol-2-yl)phenyl)(5-(5-fluorobenzo[d]oxazol-2-yl)hexahydropyrrolo[3,4-c]pyrrol-2(1H)-yl)methanone] | 235 | – | – | – | – | – | – | – | – | – | – | – | – | – | 642 | – |
| O=C(c1c(F)cccc1-n1nccn1)N1CC2CN(c3nc4cc(Cl)ccc4o3)CC2C1 (centres unmarked) [Example 3, (5-(5-chlorobenzo[d]oxazol-2-yl)hexahydropyrrolo[3,4-c]pyrrol-2(1H)-yl)(2-fluoro-6-(2H-1,2,3-triazol-2-yl)phenyl)methanone] | 147 | 626 | 624 | 760 | 45.5 | 1.21 | 26.7 | 34.6 | 907 | 904 | 567 | 57.9 | 82.2 | 52.4 | – | AUC(0-inf) ([2]; iv, 1 mg/kg): 8330 ng·h/mL; AUC(0-t) ([2]; iv, 1 mg/kg): 8320 ng·h/mL; Cmax ([2]; iv, 1 mg/kg): 3830 ng/mL; MRT inf ([2]; iv, 1 mg/kg): 175 min; Vd ([2]; iv, 1 mg/kg): 1.75 L/kg; half-life ([2]; iv, 1 mg/kg): 144 min; AUC(0-t) ([2]; po, 5 mg/kg): 35000 ng·h/mL; Cmax ([2]; po, 5 mg/kg): 5640 ng/mL; F ([2]; po, 5 mg/kg): 84.0%; MRT inf ([2]; po, 5 mg/kg): 275 min; half-life ([2]; po, 5 mg/kg): 176 min |
| Cc1ccc(-n2nccn2)c(C(=O)N2CC3CN(c4ncc5cc(F)ccc5n4)CC3C2)c1 (centres unmarked) [Example 12, (5-(6-fluoroquinazolin-2-yl)hexahydropyrrolo[3,4-c]pyrrol-2(1H)-yl)(5-methyl-2-(2H-1,2,3-triazol-2-yl)phenyl)methanone] | 140 | 460 | 460 | 749 | 25.6 | 0.987 | 40.1 | 24.3 | 454 | 452 | 340 | 39.3 | 76.8 | 50.2 | 347 | AUC(0-inf) ([2]; iv, 1 mg/kg): 1140 ng·h/mL; AUC(0-t) ([2]; iv, 1 mg/kg): 1130 ng·h/mL; Cmax ([2]; iv, 1 mg/kg): 1390 ng/mL; MRT inf ([2]; iv, 1 mg/kg): 58.2 min; Vd ([2]; iv, 1 mg/kg): 0.85 L/kg; clearance ([2]; iv, 1 mg/kg): 14.7 mL/min/kg; half-life ([2]; iv, 1 mg/kg): 42 min; AUC(0-inf) ([2]; po, 5 mg/kg): 7880 ng·h/mL; AUC(0-t) ([2]; po, 5 mg/kg): 7310 ng·h/mL; Cmax ([2]; po, 5 mg/kg): 2310 ng/mL; F ([2]; po, 5 mg/kg): 129.4%; MRT inf ([2]; po, 5 mg/kg): 187 min; half-life ([2]; po, 5 mg/kg): 119 min |
| Cc1ccc(-n2nccn2)c(C(=O)N2CC3CN(c4nc5cc(F)ccc5o4)CC3C2)c1 (centres unmarked) [Example 4, (5-(5-fluorobenzo[d]oxazol-2-yl)hexahydropyrrolo[3,4-c]pyrrol-2(1H)-yl)(5-methyl-2-(2H-1,2,3-triazol-2-yl)phenyl)methanone] | – | – | – | – | – | – | – | – | – | – | – | – | – | – | 611 | IC50 (humanized OX2 receptor): 342 nM |

More lines, main results first:

| IC50 (humanized OX2 receptor; [3]) [nM] | AUC(0-inf) ([1]; iv, 1 mg/kg) [ng·h/mL] | AUC(0-t) ([1]; iv, 1 mg/kg) [ng·h/mL] | Cmax ([1]; iv, 1 mg/kg) [ng/mL] | MRT inf ([1]; iv, 1 mg/kg) [min] | Vd ([1]; iv, 1 mg/kg) [L/kg] | clearance ([1]; iv, 1 mg/kg) [mL/min/kg] | half-life ([1]; iv, 1 mg/kg) [min] | AUC(0-inf) ([1]; po, 2.5 mg/kg) [ng·h/mL] | AUC(0-t) ([1]; po, 2.5 mg/kg) [ng·h/mL] | Cmax ([1]; po, 2.5 mg/kg) [ng/mL] | F ([1]; po, 2.5 mg/kg) [%] | MRT inf ([1]; po, 2.5 mg/kg) [min] | half-life ([1]; po, 2.5 mg/kg) [min] | SMILES | IC50 (humanized OX1 receptor) [nM] | other results |
| --- | --- | --- | --- | --- | --- | --- | --- | --- | --- | --- | --- | --- | --- | --- | --- | --- |
| – | 865 | 864 | 1270 | 32.9 | 0.648 | 20.1 | 30.1 | 752 | 750 | 537 | 34.7 | 70.2 | 41 | O=C(c1ccccc1-n1nccn1)N1CC2CN(c3ncc4cc(F)ccc4n3)CC2C1 (centres unmarked) [Example 13, (2-(2H-1,2,3-triazol-2-yl)phenyl)(5-(6-fluoroquinazolin-2-yl)hexahydropyrrolo [3,4-c]pyrrol-2(1H)-yl)methanone] | – | – |
| 221 | 551 | 549 | 639 | 47.2 | 1.42 | 30.4 | 36.1 | 790 | 783 | 485 | 57.3 | 88.8 | 61.8 | O=C(c1ccccc1-n1nccn1)N1CC2CN(c3nc4cc(Cl)ccc4o3)CC2C1 (centres unmarked) [Example 2, (2-(2H-1,2,3-triazol-2-yl)phenyl)(5-(5-chlorobenzo[d]oxazol-2-yl)hexahydropyrrolo[3,4-c]pyrrol-2(1H)-yl)methanone] | – | – |
| 201 | – | – | – | – | – | – | – | – | – | – | – | – | – | O=C(c1c(F)cccc1-n1nccn1)N1CC2CN(c3nc4cc(F)ccc4o3)CC2C1 (centres unmarked) [Example 6, (2-fluoro-6-(2H-1,2,3-triazol-2-yl)phenyl)(5-(5-fluorobenzo[d]oxazol-2-yl)hexahydropyrrolo[3,4-c]pyrrol-2(1H)-yl)methanone] | 589 | – |
